Laboratory results reported in patent US5268281A, “Cyclic FR-900520 microbial biotransformation agent” (Merck & Co., Inc., priority 1992, dated 1993).
“Also recorded” adds a separate entry of the source.

Legend:
[1] = tested on: mouse T lymphocytes (Splenic T-cells); experiment: T-Cell Proliferation Assay: inhibition of tritiated thymidine uptake in splenic T-cells stimulated with ionomycin + PMA; assay type: cell-based, mouse (C57Bl/6)
Protocol: The principle of this assay is to measure the proliferation of mouse T lymphocytes stimulated with the combination of ionomycin plus PMA.
Cells were pelleted by centrifugation at 1500 rpm for 8 minutes. Contaminating red cells were removed by treating the pellet with ammonium chloride lysing buffer (GIBCO) for 2 minutes at 4° C. Cold medium was added and cells were again centrifuged at 1500 rpm for 8 minutes. T lymphocytes were then isolated by separation of the cell suspension on nylon wool columns as follows: Nylon wool columns were prepared by packing approximately 4 grams of washed and dried nylon wool into 20 ml plastic syringes. The columns were sterilized by autoclaving at 250° F. for 30 minutes. Nylon wool columns were wetted with warm (37° C.) culture medium and rinsed with the same medium. Washed spleen cells resuspended in warm medium were slowly applied to the nylon wool. The columns were then incubated in an upright position at 37° C. for 1 hour. Non-adherent T lymphocytes were eluted from the columns with warm culture medium and the cell suspensions were spun as above.
The cell suspension was immediately distributed into 96 well flat-bottom microculture plates (Costar) at 200 μl/well. […] The proliferation of T lymphocytes was assessed by measurement of tritiated thymidine incorporation. After 44 hours of culturing, the cells were pulse-labelled with 2 μCi/well of tritiated thymidine (NEN, Cambridge, Mass.). After another 4 hours of incubation, cultures were harvested on glass fiber filters using a multiple sample harvester. Radioactivity of filter discs corresponding to individual wells was measured by standard liquid scintillation counting methods (Betacounter). Mean counts per minute of replicate wells were calculated and the results expressed as percent inhibition of tritiated thymidine uptake (proliferation) as follows: [formula]

[2] = Solubility (physical characteristics); assay type: physicochemical; conditions: in methanol
[3] = EPO Publication No. 0184162; cited from earlier work

| SMILES | reversal of inhibition of T-cell proliferation by addition of IL2 ([1]; 50 units/ml recombinant IL2 at the initiation of culture) | FK-506 immunosuppressant activity / immunosuppressive activity in T-cell proliferation assay ([1]; ionomycin plus PMA, result in words) | Solubility [2] | effectiveness relative to cyclosporin (reputed) [3] [times] | inhibition at 0.01 µg/mL ([1]; Mus musculus, T-cell, 48 h, read-out: inhibition (Standard)) [%] |
| --- | --- | --- | --- | --- | --- |
| CC[C@@H]1C=C2COC1(O)C[C@H](O)[C@@H](C)[C@@H](/C(C)=C/[C@@H]1CC[C@@H](O)[C@H](OC)C1)OC(=O)[C@@H]1CCCCN1C(=O)C(=O)[C@]1(O)O[C@H]([C@@H](OC)C[C@@H](C)C2)[C@@H](OC)C[C@H]1C [Compound I] | reversed | positive inhibition of T-cell activation; also recorded: positive immunosuppressive activity | Solubility in methanol | – | – |
| C=CC[C@@H]1/C=C(\C)C[C@H](C)C[C@H](OC)[C@H]2O[C@@](O)(C(=O)C(=O)N3CCCC[C@H]3C(=O)O[C@H](/C(C)=C/[C@@H]3CC[C@@H](O)[C@H](OC)C3)[C@H](C)[C@@H](O)CC1=O)[C@H](C)C[C@@H]2OC [FR900506, reference compound] | – | – | – | 100 | 99 |
